Among the test systems are 786-0; DU-145; Hs-578T; K562; NCI/ADR-RES; PC-3; SF-539; SK-OV-3; SNB-75; T47D; U-251; UACC-257; KM12; UACC-62.
Experiment in all cases: NCI-60 cell line screen, 48 h

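A five-concentration, 48-hour dose response in 96-well plates underlies each endpoint, interpolated linearly between surrounding concentrations. GI50: concentration for 50% inhibition of growth.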 Calls of active or inactive are those of the source. Cut-off read from the data, not from the text of the source: active = GI50 up to about 1.1 µM and inactive = higher. Non-standard residues stand in square brackets, D forms with d. Residues, ends and D or L forms follow the SMILES beside them. ξ: configuration not given here. Pentanoyl(2-O,4-OH,5-Cl) = O=C(O)C(O)CC(O)CCl; Ile(3ξ) = CCC(C)[C@H](N)C(=O)O; NMeV = CN[C@H](C(=O)O)C(C)C; NMeA = CN[C@@H](C)C(=O)O; βAla = NCCC(=O)O Some results are limits rather than exact numbers.

Regarding `O=C/C(=C1/C=Cc2cc([N+](=O)[O-])ccc2S1)c1ccccc1`, the GI50 in the experiment with 786-0, with DU-145, in the experiment with Hs-578T, in the experiment with K562, in the experiment with NCI/ADR-RES and with PC-3 was > 100 µM (inactive) each time. Further, the GI50 in the experiment with SF-539 is > 100 µM (inactive); in the experiment with SK-OV-3, > 100 µM (inactive); in the experiment with SNB-75, 25.1 µM (inactive); in the experiment with T47D, > 100 µM (inactive); in the experiment on U-251, > 100 µM (inactive); with UACC-257, > 100 µM (inactive).

Consider `CSc1ncnc2c1ncn2CCC#N`, for which the GI50 in the experiment on 786-0, with DU-145, in the experiment with Hs-578T, in the experiment with K562, in the experiment on KM12 and in the experiment with NCI/ADR-RES was > 100 µM (inactive) throughout. Besides, the GI50 with PC-3, in the experiment on SF-539, with SK-OV-3, in the experiment with SNB-75 and with UACC-257 was > 100 µM (inactive) throughout.

For `CCOC(=O)C(=Cn1c(=S)[nH]c2ccc([N+](=O)[O-])cc21)C(=O)OCC`, the GI50 with 786-0 is > 100 µM (inactive); in the experiment with DU-145, > 100 µM (inactive); with Hs-578T, 90.4 µM (inactive); with K562 it was > 100 µM (inactive); in the experiment on KM12, > 100 µM (inactive); in the experiment on NCI/ADR-RES, > 100 µM (inactive). In addition, the GI50 in the experiment on PC-3 is > 100 µM (inactive); in the experiment on SF-539 it was > 100 µM (inactive); with SK-OV-3 it was > 100 µM (inactive); in the experiment with SNB-75, 47.9 µM (inactive); with T47D, 59.6 µM (inactive); in the experiment with U-251 it was > 100 µM (inactive). The GI50 with UACC-257 and with UACC-62 was > 100 µM (inactive) throughout.

With `Cc1ccc(NC(=O)/C(=N/N(C)C)C(C2OC(=O)c3ccccc32)[N+](=O)[O-])cc1` (stereo not drawn), the GI50 in the experiment with 786-0, with Hs-578T, in the experiment on K562, in the experiment with KM12, with NCI/ADR-RES and with PC-3 was > 100 µM (inactive) in each case. The GI50 in the experiment on SF-539, with SK-OV-3, in the experiment with SNB-75, with T47D, in the experiment on U-251 and with UACC-257 was > 100 µM (inactive) in each case. The GI50 in the experiment on UACC-62 is > 100 µM (inactive).

As for `Cc1c(Cl)c(=O)oc2cc(OCC(=O)c3ccccc3)ccc12`, the GI50 in the experiment with DU-145, in the experiment on Hs-578T, in the experiment on K562, in the experiment on KM12, in the experiment on NCI/ADR-RES and in the experiment with PC-3 was > 100 µM (inactive) in each case. For the same compound, the GI50 in the experiment with SF-539 was > 100 µM (inactive); with SK-OV-3, > 100 µM (inactive); with T47D, > 100 µM (inactive); in the experiment with U-251, 33.2 µM (inactive); in the experiment on UACC-257, > 100 µM (inactive); in the experiment with UACC-62, > 100 µM (inactive).

`COc1ccc(C2c3cc4c(cc3OC(NCCO)C2C)OCO4)cc1` (stereo not drawn): the GI50 was 29.4 µM (inactive) in the experiment with DU-145; 19.3 µM (inactive) in the experiment on Hs-578T; 22.5 µM (inactive) in the experiment with K562; 31.7 µM (inactive) with KM12; 23.4 µM (inactive) in the experiment with PC-3; 20 µM (inactive) in the experiment on SF-539. Moreover, the GI50 in the experiment with SK-OV-3 is 38.1 µM (inactive); in the experiment on SNB-75, 19.6 µM (inactive); with T47D, 30.3 µM (inactive); with U-251, 21.2 µM (inactive); in the experiment on UACC-257, 21 µM (inactive); with UACC-62, 28.2 µM (inactive).

As for `O=[N+]([O-])c1cccc2nccc(NCC(O)CO)c12` (stereo not drawn), the GI50 was 18 µM (inactive) in the experiment with 786-0; 26.3 µM (inactive) with DU-145; 7.8 µM (inactive) in the experiment with Hs-578T; 20.2 µM (inactive) in the experiment with K562; 14 µM (inactive) in the experiment on KM12; 25.5 µM (inactive) in the experiment with NCI/ADR-RES. The GI50 in the experiment with PC-3 was 16.5 µM (inactive); with SF-539, 17.7 µM (inactive); with SK-OV-3, 25.4 µM (inactive); in the experiment on SNB-75, 22.8 µM (inactive); in the experiment on T47D, 24.2 µM (inactive); in the experiment on U-251, 14.6 µM (inactive). The GI50 in the experiment on UACC-257 is 15.2 µM (inactive); in the experiment with UACC-62, 15 µM (inactive).

Turning to `Nc1ccc(N(S(=O)(=O)c2ccccc2)S(=O)(=O)c2ccccc2)c(Cl)c1`, the GI50 in the experiment on 786-0 was 81.1 µM (inactive); with DU-145, 95.7 µM (inactive); in the experiment with Hs-578T it was 64 µM (inactive); in the experiment with K562, 2.98 µM (inactive); with KM12, 24.2 µM (inactive); in the experiment with NCI/ADR-RES, 40.2 µM (inactive). Besides, the GI50 is 35.6 µM (inactive) in the experiment with PC-3; 69 µM (inactive) in the experiment with SF-539; 42.2 µM (inactive) with SNB-75; 48.1 µM (inactive) with T47D; 39.3 µM (inactive) with U-251; 34.3 µM (inactive) with UACC-257. Also, the GI50 in the experiment with UACC-62 is 24.8 µM (inactive).

In the case of `CCC(C)[C@@H]1NC(=O)[C@@H]2CCCN2C(=O)C(CC(O)CCl)OC(=O)CCNC(=O)[C@H](C)N(C)C(=O)[C@H](C(C)C)N(C)C1=O` (stereo partly drawn) (cyclo([Ile(3ξ)][NMeV][NMeA][βAla][Pentanoyl(2-O,4-OH,5-Cl)]P)), the GI50 in the experiment on DU-145 is > 100 µM (inactive); in the experiment on Hs-578T, > 91.6 µM (inactive); with K562 it was > 45.1 µM (inactive); in the experiment with KM12, > 61.9 µM (inactive); in the experiment with NCI/ADR-RES it was > 100 µM (inactive); in the experiment on PC-3, 74.6 µM (inactive). For the same compound, the GI50 is > 100 µM (inactive) in the experiment with SF-539; > 100 µM (inactive) in the experiment with SK-OV-3; 2.92 µM (inactive) in the experiment with SNB-75; 3.94 µM (inactive) with T47D; > 29 µM (inactive) with U-251; 2.46 µM (inactive) in the experiment with UACC-257. For the same compound, the GI50 with UACC-62 was 0.923 µM (active).

In the case of `CC(C)CC(N)C(=O)NC(CNC(CCC(N)=O)C(=O)NC(CC(C)C)C(=O)NC(CC(C)C)C(=O)O)Cc1ccc2ccccc2c1` (stereo not drawn), the GI50 in the experiment with 786-0, in the experiment with DU-145, with Hs-578T, in the experiment with K562, in the experiment on KM12 and with NCI/ADR-RES was > 10 µM (inactive) throughout. Further, the GI50 with PC-3, in the experiment with SF-539, in the experiment with SK-OV-3, in the experiment on SNB-75, in the experiment with U-251 and in the experiment with UACC-257 was > 10 µM (inactive) in each case. Also, the GI50 with UACC-62 was > 10 µM (inactive).

With `C[C@]12CC/C(=N\O)C=C1CC[C@@H]1[C@@H]2CC[C@]2(C)C(=N/O)/C(=C/c3cccnc3)C[C@@H]12`, the GI50 in the experiment on 786-0 was 28.4 µM (inactive); in the experiment on DU-145, 21.8 µM (inactive); in the experiment on Hs-578T it was 3.63 µM (inactive); in the experiment on K562, 6.98 µM (inactive); with KM12, 6.98 µM (inactive); with NCI/ADR-RES, 14.3 µM (inactive). The GI50 was 6.95 µM (inactive) with PC-3; 25.2 µM (inactive) in the experiment on SF-539; 39.1 µM (inactive) in the experiment on SK-OV-3; 22.6 µM (inactive) in the experiment on U-251; 17.9 µM (inactive) in the experiment with UACC-257; 3.3 µM (inactive) with UACC-62.

Turning to `Oc1c(Br)ccc2cccnc12`, the GI50 in the experiment with 786-0 is 3.91 µM (inactive); in the experiment on DU-145 it was 5.4 µM (inactive); with Hs-578T, 3.21 µM (inactive); in the experiment on K562, 1.06 µM (active); with KM12, 4.07 µM (inactive); with NCI/ADR-RES, 1 µM (active). Further, the GI50 in the experiment with PC-3 is 3.33 µM (inactive); with SK-OV-3 it was 4.21 µM (inactive); in the experiment with SNB-75, 10.4 µM (inactive); in the experiment on T47D, 1.51 µM (inactive); in the experiment with U-251 it was 2.4 µM (inactive); with UACC-257 it was 1.36 µM (inactive). Moreover, the GI50 in the experiment with UACC-62 is 1.52 µM (inactive).

In the case of `Cc1nn(C)c2c1C(=O)N(C)CC(=O)N2C`, the GI50 with 786-0, in the experiment with DU-145, in the experiment with Hs-578T, in the experiment with K562, in the experiment with KM12 and in the experiment on PC-3 was > 100 µM (inactive) each time. Moreover, the GI50 in the experiment with SF-539, with SK-OV-3, with SNB-75, in the experiment with U-251, with UACC-257 and in the experiment on UACC-62 was > 100 µM (inactive) in each case.

Turning to `N#Cc1c(NC(=S)NC(=O)c2ccccc2)nc2c(c1-c1ccccc1)CCCC2`, the GI50 in the experiment on DU-145 is > 100 µM (inactive); in the experiment with Hs-578T, 17 µM (inactive); with K562, > 100 µM (inactive); in the experiment on KM12, > 100 µM (inactive); with NCI/ADR-RES, 51.6 µM (inactive); in the experiment with PC-3, > 100 µM (inactive). For the same compound, the GI50 in the experiment on SK-OV-3 is 31.4 µM (inactive); with SNB-75, 17.1 µM (inactive); in the experiment on T47D it was 17.7 µM (inactive); in the experiment on U-251, > 100 µM (inactive); in the experiment on UACC-257, > 100 µM (inactive); in the experiment with UACC-62, > 100 µM (inactive).

Consider `CN(C)c1ccc(C2CC(=O)CC(c3ccc(N(C)C)cc3)C23C(=O)NC(=O)NC3=O)cc1` (stereo not drawn), for which the GI50 was 12.4 µM (inactive) in the experiment on 786-0; > 25 µM (inactive) with DU-145; 0.025 µM (active) in the experiment on K562; > 25 µM (inactive) in the experiment on KM12; > 25 µM (inactive) in the experiment with NCI/ADR-RES; > 25 µM (inactive) in the experiment with PC-3. Further, the GI50 was 14.9 µM (inactive) in the experiment with SF-539; 9.79 µM (inactive) in the experiment on SNB-75; > 25 µM (inactive) in the experiment with T47D; 20.6 µM (inactive) with U-251; > 25 µM (inactive) with UACC-257; 19.5 µM (inactive) with UACC-62.

The values are drawn from ChEMBL document CHEMBL1201862, “PubChem BioAssay data set” (2004).
